Experimental data taken from PubChem BioAssay AID330 (DTP/NCI, 2004).
Values joined by “and” are separate entries in the source; they are usually repeats but may differ in a detail not shown here. Equal values may be shown once. Inconclusive results and toxic doses are left out. How the source made its calls: active means survival T/C of 150% or more; inactive means T/C below 125% in these data.

Test system: P388 leukemia ip, CD2F1 mice, survival T/C
Assay: NCI In Vivo Anticancer Drug Screen. Data for tumor model P388 Leukemia (intraperitoneal) in CD2F1 (CDF1) mice
Conditions: endpoint: median survival time, higher = longer survival
In short: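 Mice carrying the transplanted tumor received test compound or vehicle. Survival was recorded in each group, and the value is the treated-group measurement divided by that of the vehicle-treated control group.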

[1] = dose: 60.0 mg/kg/injection, schedule: Q01DX005 (ip), vehicle: saline
[2] = dose: 120.0 mg/kg/injection, schedule: Q01DX005 (ip), vehicle: saline
[3] = dose: 240.0 mg/kg/injection, schedule: Q01DX005 (ip), vehicle: saline
[4] = dose: 25.0 mg/kg/injection, schedule: Q01DX009 (ip), vehicle: saline with Tween-80
[5] = dose: 100.0 mg/kg/injection, schedule: Q04DX003 (ip), vehicle: saline with Tween-80
[6] = dose: 50.0 mg/kg/injection, schedule: Q01DX005 (ip), vehicle: Klucel (hydroxypropylcellulose) (HPC)
[7] = dose: 100.0 mg/kg/injection, schedule: Q01DX005 (ip), vehicle: Klucel (hydroxypropylcellulose) (HPC)
[8] = dose: 200.0 mg/kg/injection, schedule: Q01DX005 (ip), vehicle: Klucel (hydroxypropylcellulose) (HPC)
[9] = dose: 7.5 mg/kg/injection, schedule: Q01DX005 (ip), vehicle: Klucel (hydroxypropylcellulose) (HPC)
[10] = dose: 3.12 mg/kg/injection, schedule: Q01DX005 (ip), vehicle: Klucel (hydroxypropylcellulose) (HPC)
[11] = dose: 6.25 mg/kg/injection, schedule: Q01DX005 (ip), vehicle: Klucel (hydroxypropylcellulose) (HPC)
[12] = dose: 12.5 mg/kg/injection, schedule: Q01DX005 (ip), vehicle: Klucel (hydroxypropylcellulose) (HPC)
[13] = dose: 25.0 mg/kg/injection, schedule: Q01DX005 (ip), vehicle: Klucel (hydroxypropylcellulose) (HPC)
[14] = dose: 50.0 mg/kg/injection, schedule: Q01DX005 (ip), vehicle: saline with Tween-80
[15] = dose: 100.0 mg/kg/injection, schedule: Q01DX005 (ip), vehicle: saline with Tween-80
[16] = dose: 200.0 mg/kg/injection, schedule: Q01DX005 (ip), vehicle: saline with Tween-80
[17] = dose: 100.0 mg/kg/injection, schedule: Q01DX009 (ip), vehicle: saline
[18] = dose: 200.0 mg/kg/injection, schedule: Q01DX009 (ip), vehicle: saline
[19] = dose: 400.0 mg/kg/injection, schedule: Q01DX009 (ip), vehicle: saline

Measured: T/C

CNC(=O)OCc1nc(-c2ccccc2)oc1COC(=O)NC
inactive: dose: 12.5 mg/kg/injection, schedule: Q01DX005 (ip), vehicle: distilled water + Tween-80 96 % of control | dose: 25.0 mg/kg/injection, schedule: Q01DX005 (ip), vehicle: distilled water + Tween-80 97 % of control | dose: 50.0 mg/kg/injection, schedule: Q01DX005 (ip), vehicle: distilled water + Tween-80 92 % of control | dose: 100.0 mg/kg/injection, schedule: Q01DX005 (ip), vehicle: distilled water + Tween-80 89 % of control | dose: 200.0 mg/kg/injection, schedule: Q01DX005 (ip), vehicle: distilled water + Tween-80 89 % of control

O=C1NNC(c2ccccc2)=Nc2ccccc21
inactive: dose: 100.0 mg/kg/injection, schedule: Q04DX002 (ip), vehicle: saline with Tween-80 96 % of control | dose: 200.0 mg/kg/injection, schedule: Q04DX002 (ip), vehicle: saline with Tween-80 96 % of control | dose: 400.0 mg/kg/injection, schedule: Q04DX002 (ip), vehicle: saline with Tween-80 94 % of control

NC(=S)N/N=C/c1[nH]c2cc(Br)c(Br)cc2c1Br
inactive: dose: 100.0 mg/kg/injection, schedule: Q01DX001 (ip), vehicle: saline with Tween-80 91 % of control | dose: 200.0 mg/kg/injection, schedule: Q01DX001 (ip), vehicle: saline with Tween-80 91 % of control | dose: 400.0 mg/kg/injection, schedule: Q01DX001 (ip), vehicle: saline with Tween-80 98 % of control

CCCNC(=O)OCCN(CCOC(=O)NCCC)CCc1cccc(OC)c1OC
inactive: [1] 101 % of control | [2] 105 % of control | [3] 100 % of control

O=C1c2cscc2C(=O)c2c(Cl)sc(Cl)c21
inactive: [4] 95 % of control

CC(C)(C)COSc1ccccc1
inactive: [5] 106 % of control

CCOCc1cn[nH]n1
inactive: [1] 100 % of control | [2] 100 % of control | [3] 104 % of control

CC1(C)CC(O)(CC2CCC34C(=O)OC(C)(CCC3Br)C24)CCC1Br (configuration not stated)
inactive: dose: 5.0 mg/kg/injection, schedule: Q01DX009 (ip), vehicle: Klucel (hydroxypropylcellulose) (HPC) 93 % of control | dose: 10.0 mg/kg/injection, schedule: Q01DX009 (ip), vehicle: Klucel (hydroxypropylcellulose) (HPC) 109 % of control | dose: 20.0 mg/kg/injection, schedule: Q01DX009 (ip), vehicle: Klucel (hydroxypropylcellulose) (HPC) 100 % of control

CCOC(=O)\C(C#N)=C/C(C)=C/C(C)=C/Nc1ccc([N+](=O)[O-])cc1[N+](=O)[O-]
inactive: [6] 111 % of control | [7] 110 % of control | [8] 114 % of control

CC(/C=C/c1ccc(O)cc1)=N\NC(N)=S
inactive: dose: 3.75 mg/kg/injection, schedule: Q01DX005 (ip), vehicle: Klucel (hydroxypropylcellulose) (HPC) 103 % of control | [9] 99 % of control | dose: 15.0 mg/kg/injection, schedule: Q01DX005 (ip), vehicle: Klucel (hydroxypropylcellulose) (HPC) 99 % of control | dose: 30.0 mg/kg/injection, schedule: Q01DX005 (ip), vehicle: Klucel (hydroxypropylcellulose) (HPC) 99 % of control and 104 % of control

O=C(Nc1ccc(Br)cc1)Oc1ccc(Cl)cc1C(=O)c1ccccc1
inactive: dose: 60.0 mg/kg/injection, schedule: Q01DX005 (ip), vehicle: Klucel (hydroxypropylcellulose) (HPC) 105 % of control | dose: 120.0 mg/kg/injection, schedule: Q01DX005 (ip), vehicle: Klucel (hydroxypropylcellulose) (HPC) 105 % of control | dose: 240.0 mg/kg/injection, schedule: Q01DX005 (ip), vehicle: Klucel (hydroxypropylcellulose) (HPC) 108 % of control

O=C(NP1(=O)NCc2ccccc2CN1)OC1CCCC1
inactive: [10] 99 % of control and 92 % of control | [11] 101 % of control and 91 % of control | [12] 99 % of control and 104 % of control | [13] 92 % of control and 93 % of control and 98 % of control | [6] 91 % of control | [8] 88 % of control

CCCCCN(CCCCC)CC(=O)c1ccc2cc(Br)c3ccccc3c2c1
inactive: [14] 104 % of control | [15] 101 % of control | [16] 108 % of control

Cc1nc2c(sc(=N)n2-c2ccccc2)c(=O)[nH]1
inactive: dose: 12.5 mg/kg/injection, schedule: Q01DX009 (ip), vehicle: saline with Tween-80 115 % of control | [4] 106 % of control | dose: 50.0 mg/kg/injection, schedule: Q01DX009 (ip), vehicle: saline with Tween-80 103 % of control

FC(F)(F)c1nc(Cc2ccccc2)c(C(F)(F)F)o1
inactive: [5] 93 % of control | dose: 200.0 mg/kg/injection, schedule: Q04DX003 (ip), vehicle: saline with Tween-80 93 % of control | dose: 400.0 mg/kg/injection, schedule: Q04DX003 (ip), vehicle: saline with Tween-80 95 % of control

Cc1ccc2c(C(=O)O)cc(N)cc2n1
inactive: dose: 2.0 mg/kg/injection, schedule: Q01DX005 (ip), vehicle: Klucel (hydroxypropylcellulose) (HPC) 100 % of control | dose: 4.0 mg/kg/injection, schedule: Q01DX005 (ip), vehicle: Klucel (hydroxypropylcellulose) (HPC) 104 % of control | [9] 102 % of control | dose: 8.0 mg/kg/injection, schedule: Q01DX005 (ip), vehicle: Klucel (hydroxypropylcellulose) (HPC) 97 % of control

CC(Br)C(=O)NC(Cc1ccccc1)C(=O)O (configuration not stated)
inactive: [17] 99 % of control | [18] 103 % of control | [19] 89 % of control

CCC1(C)CCC2(C)C(CCC3C4(C)CCCC32OC4=O)C1 (configuration not stated)
inactive: [13] 96 % of control | [6] 99 % of control | [7] 101 % of control and 103 % of control | [8] 99 % of control

Fc1cccc(CSC(=S)Nc2ccccc2)c1
inactive: dose: 100.0 mg/kg/injection, schedule: Q01DX001 (ip), vehicle: saline 106 % of control | dose: 200.0 mg/kg/injection, schedule: Q01DX001 (ip), vehicle: saline 102 % of control | dose: 400.0 mg/kg/injection, schedule: Q01DX001 (ip), vehicle: saline 102 % of control

CN1C(c2ccccc2)C2CCCC(C1c1ccccc1)[N+](C)(C)C2 (configuration not stated)
inactive: dose: 100.0 mg/kg/injection, schedule: Q04DX003 (ip), vehicle: suspension in saline 104 % of control | dose: 200.0 mg/kg/injection, schedule: Q04DX003 (ip), vehicle: suspension in saline 100 % of control | dose: 400.0 mg/kg/injection, schedule: Q04DX003 (ip), vehicle: suspension in saline 100 % of control

O=C1C(Cl)=C(Oc2ccccc2Cl)C(=O)C(Cl)=C1Oc1ccccc1Cl
inactive: [10] 91 % of control and 96 % of control | [11] 98 % of control and 92 % of control | [12] 86 % of control and 87 % of control and 97 % of control | [6] 102 % of control | [7] 99 % of control | [8] 96 % of control

CC1=NNC(C)(C)C1
inactive: [17] 105 % of control | [18] 105 % of control | [19] 110 % of control

N/N=C(\N)c1nn(C2OC(CO)C(O)C2O)c2ncnc(N)c12 (configuration not stated)
inactive: dose: 40.0 mg/kg/injection, schedule: Q01DX005 (ip), vehicle: saline with Tween-80 104 % of control | dose: 80.0 mg/kg/injection, schedule: Q01DX005 (ip), vehicle: saline with Tween-80 104 % of control | dose: 160.0 mg/kg/injection, schedule: Q01DX005 (ip), vehicle: saline with Tween-80 101 % of control | dose: 320.0 mg/kg/injection, schedule: Q01DX005 (ip), vehicle: saline with Tween-80 104 % of control

O=C(Nc1c(Cl)cccc1Cl)Nc1c(Cl)cccc1Cl
inactive: dose: 60.0 mg/kg/injection, schedule: Q01DX005 (ip), vehicle: saline with Tween-80 92 % of control | dose: 120.0 mg/kg/injection, schedule: Q01DX005 (ip), vehicle: saline with Tween-80 92 % of control | dose: 240.0 mg/kg/injection, schedule: Q01DX005 (ip), vehicle: saline with Tween-80 94 % of control

O=C1C=CC2C3C(=O)N(c4ccccc4)C(=O)C3C1N2Cc1ccccc1 (configuration not stated)
inactive: [14] 105 % of control and 110 % of control and 118 % of control | [15] 116 % of control and 117 % of control and 118 % of control | [16] 119 % of control and 120 % of control and 123 % of control | dose: 400.0 mg/kg/injection, schedule: Q01DX005 (ip), vehicle: saline with Tween-80 113 % of control and 114 % of control

CC(=NC(C)(C)C)N1CCOCC1
inactive: dose: 50.0 mg/kg/injection, schedule: Q01DX009 (ip), vehicle: saline + Tween-80 + alcohol 101 % of control | dose: 100.0 mg/kg/injection, schedule: Q01DX009 (ip), vehicle: saline + Tween-80 + alcohol 100 % of control | dose: 200.0 mg/kg/injection, schedule: Q01DX009 (ip), vehicle: saline + Tween-80 + alcohol 88 % of control
